Numbered stars: 1 amine (or outer) side, 2 acyl side, 3 side chain; on linkers, the order of the positions; unused ones are H or OH. Bridge positions count the residues as written; N and C are the ends. Square brackets hold non-standard residues; d marks the D form. Peptide text beside a SMILES is read from it. X3 = O=C(/C=N/OCCCCCCOc1cc(C[*:2])cc(C[*:3])c1)[*:1]; X1 = O=C(C=NOCCCCCCOc1cc(C[*:2])cc(C[*:3])c1)[*:1]; tBuAla = CC(C)(C)C[C@H](N)C(=O)O; Cba = N[C@@H](CC1CCC1)C(=O)O; Nle = CCCC[C@H](N)C(=O)O

For one assay, the target named is T1, rh-integrin α4β7/LPAM-1 (Homo sapiens, UniProt P13612+P26010).
T1 sequence (P13612 34-977 limits assumed): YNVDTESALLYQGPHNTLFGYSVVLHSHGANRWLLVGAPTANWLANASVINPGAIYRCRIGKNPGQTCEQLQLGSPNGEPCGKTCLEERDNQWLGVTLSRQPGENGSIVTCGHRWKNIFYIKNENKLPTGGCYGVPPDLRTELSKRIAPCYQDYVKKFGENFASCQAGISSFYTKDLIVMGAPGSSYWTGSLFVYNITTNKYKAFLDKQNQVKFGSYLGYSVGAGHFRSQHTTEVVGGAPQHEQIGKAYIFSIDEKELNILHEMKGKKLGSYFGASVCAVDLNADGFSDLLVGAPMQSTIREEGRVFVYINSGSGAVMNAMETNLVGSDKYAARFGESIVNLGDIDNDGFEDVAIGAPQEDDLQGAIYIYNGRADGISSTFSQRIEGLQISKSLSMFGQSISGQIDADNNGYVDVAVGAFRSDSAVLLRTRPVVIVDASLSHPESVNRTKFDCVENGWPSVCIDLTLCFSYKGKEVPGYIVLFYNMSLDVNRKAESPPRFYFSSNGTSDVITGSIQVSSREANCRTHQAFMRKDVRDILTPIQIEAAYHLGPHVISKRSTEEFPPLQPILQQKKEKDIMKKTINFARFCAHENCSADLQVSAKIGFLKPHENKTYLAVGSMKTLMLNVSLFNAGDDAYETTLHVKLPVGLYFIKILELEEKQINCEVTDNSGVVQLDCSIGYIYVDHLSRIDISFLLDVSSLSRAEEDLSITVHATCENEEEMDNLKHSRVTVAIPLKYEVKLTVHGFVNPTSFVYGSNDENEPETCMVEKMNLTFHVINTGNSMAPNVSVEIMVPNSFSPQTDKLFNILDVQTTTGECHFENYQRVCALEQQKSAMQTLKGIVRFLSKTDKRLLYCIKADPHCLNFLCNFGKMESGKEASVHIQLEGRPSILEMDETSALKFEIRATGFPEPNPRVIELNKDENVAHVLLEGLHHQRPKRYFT
T1 sequence (P26010 20-723 limits assumed): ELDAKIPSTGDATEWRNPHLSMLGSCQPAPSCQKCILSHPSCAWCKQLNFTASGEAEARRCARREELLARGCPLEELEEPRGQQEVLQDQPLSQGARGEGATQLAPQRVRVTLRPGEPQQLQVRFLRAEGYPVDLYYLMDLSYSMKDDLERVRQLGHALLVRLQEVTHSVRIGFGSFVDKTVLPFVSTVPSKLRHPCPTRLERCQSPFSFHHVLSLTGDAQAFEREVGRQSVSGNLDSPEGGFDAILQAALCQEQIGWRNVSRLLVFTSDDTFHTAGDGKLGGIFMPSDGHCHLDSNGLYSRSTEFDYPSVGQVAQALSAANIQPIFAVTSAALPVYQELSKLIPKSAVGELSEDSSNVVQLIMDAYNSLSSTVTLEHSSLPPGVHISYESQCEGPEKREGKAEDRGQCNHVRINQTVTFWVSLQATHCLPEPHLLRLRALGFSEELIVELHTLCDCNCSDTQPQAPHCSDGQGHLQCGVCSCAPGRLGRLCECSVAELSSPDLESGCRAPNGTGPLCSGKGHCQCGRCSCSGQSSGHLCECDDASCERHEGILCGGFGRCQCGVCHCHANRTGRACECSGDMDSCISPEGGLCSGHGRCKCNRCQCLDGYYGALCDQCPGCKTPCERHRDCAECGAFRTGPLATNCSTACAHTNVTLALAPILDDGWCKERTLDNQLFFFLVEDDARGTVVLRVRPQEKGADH
Put plainly: α4β7-MadCAM Competition ELISA (Example 4). It is filed as binding. Conditions: Table 3 Representative compounds; inhibition of MAdCAM binding to coated α4β7; read-out: IC50. The method, then: After washing with wash buffer, 200 μL assay buffer was added to each well and incubated for one hour at 28° C. After another wash with wash buffer, 100 μL of a MAdCAM and peptide mixture in assay buffer was added to each well and incubated for one hour at 28° C., followed by washing with wash buffer.
As to `CC(C)C[C@@H]1NC(=O)[C@@H]2CCCN2C(=O)[C@@H]2CSCc3cc(cc(c3)OCCCCCCO/N=C/C(=O)N[C@@H](CCCCN)C(=O)N2)CSC[C@@H](C(N)=O)NC(=O)[C@H](CCC(=O)O)NC(=O)[C@H](C)NC(=O)[C@@H]2CCCN2C(=O)[C@H]([C@@H](C)O)NC(=O)[C@H](CC(=O)O)NC1=O` [compound 35, TSL6- SKCPLDTPAEC] (KCPLDTPAEC-NH2; linker N-2-10 via X3), the concentration for half-maximal inhibition (IC50) worked out at 0.796 µM. On to `CC(C)C[C@@H]1NC(=O)[C@@H]2CCCN2C(=O)[C@@H]2CSCc3cc(cc(c3)OCCCCCCO/N=C/C(=O)N[C@@H](CCCCN)C(=O)N2)CSC[C@@H](C(N)=O)NC(=O)[C@H](CO)NC(=O)[C@@H]2CCCN2C(=O)[C@H](C(C)C)NC(=O)[C@H](C)NC1=O` [compound 81, TSL6- SKCPLAVPSC] (KCPLAVPSC-NH2; linker N-2-9 via X3), for which the 50% inhibitory concentration (IC50) was 55.9 µM. As for `CC(C)C[C@@H]1NC(=O)[C@H]([C@@H](C)O)NC(=O)[C@H](CC(=O)O)NC(=O)[C@H](CO)NC(=O)[C@H](CCCNC(=N)N)N(C)C(=O)CCSC[C@@H](C(=O)N[C@@H](Cc2c[nH]c3ccccc23)C(=O)N[C@@H](CCCCN)C(N)=O)NC1=O` [compound 2], the IC50 was found to be 0.033 µM. On the same count and under the same terms, next, `CCCC[C@@H]1NC(=O)[C@H](CO)NC(=O)[C@@H]2CSSC[C@@H](C(=O)N[C@@H](Cc3c[nH]c4ccccc34)C(=O)N[C@@H](CCC(N)=O)C(N)=O)NC(=O)[C@H](C(C)C)NC(=O)[C@@H](CC(=O)O)NC(=O)[C@H](CC(C)C)NC(=O)[C@H](CO)NC(=O)[C@H](CCCNC(=N)N)NC(=O)[C@H](CSCC(=O)N[C@@H](CCCNC(=N)N)C(=O)N2)NC(=O)[C@H]([C@@H](C)CC)NC(=O)[C@H](CC(=O)O)NC1=O` [compound 70, Disulfide- RCS{Nle}DICRS LDVCWQ] ({CH2CO}-RCS[Nle]DICRSL[dD]VCWQ-NH2; disulfide 2-13; thioether N-7): 19.7 µM. Take `CC[C@H](C)[C@@H]1NC(=O)[C@H](CCCNC(=N)N)NC(=O)CNC(=O)[C@H](Cc2ccc(O)cc2)NC(=O)[C@H](Cc2c[nH]c3ccccc23)NC(=O)[C@H](Cc2c[nH]cn2)NC(=O)[C@@H]2CSCc3cc(cc(c3)OCCCCCCO/N=C/C(=O)N[C@@H](CC(N)=O)C(=O)N2)CSC[C@@H](C(N)=O)NC1=O` [compound 83, TSL6- SNCHWYGRIC] (NCHWYGRIC-NH2; linker N-2-9 via X3): the IC50 came to 63.8 µM.

Turning to `NC(=O)[C@@H]1CSCc2cc3cc(c2)OCCCCCCO/N=C/C(=O)N[C@@H](CC(=O)O)C(=O)N[C@@H](CSC3)C(=O)N[C@@H](Cc2ccc(O)cc2)C(=O)N2CCC[C@H]2C(=O)N[C@@H](CC(=O)O)C(=O)N[C@@H](Cc2ccccc2)C(=O)N[C@@H](Cc2ccc(O)cc2)C(=O)N[C@@H](Cc2cnc[nH]2)C(=O)N1` [compound 96, TSL6- SDCYPDFYHC] (DCYPDFYHC-NH2; linker N-2-9 via X3), the IC50 was determined as 124 µM. Same read-out and setting: next, `CC[C@H](C)[C@@H]1NC(=O)[C@H](CC(=O)O)NC(=O)[C@H](CCSC)NC(=O)[C@@H]2CCCN2C(=O)[C@@H]2CSCc3cc(cc(c3)OCCCCCCO/N=C/C(=O)N[C@@H](CCCNC(=N)N)C(=O)N2)CSC[C@@H](C(N)=O)NC(=O)[C@H](CCC(=O)O)NC(=O)CNC(=O)[C@H](C)NC1=O` [compound 13] (RCPMDIAGEC-NH2; linker N-2-10 via X3): 0.227 µM. Turning to `C[C@@H](O)[C@@H]1NC(=O)[C@H](Cc2ccccc2)NC(=O)[C@H](CCCCN)NC(=O)[C@H](CC(=O)O)NC(=O)[C@H](Cc2cnc[nH]2)NC(=O)[C@@H]2CSCc3cc(cc(c3)OCCCCCCO/N=C/C(=O)N[C@@H](CO)C(=O)N2)CSC[C@@H](C(N)=O)NC(=O)[C@H](CCC(=O)O)NC1=O` [compound 60, TSL6- SDCHDKFTEC] (SCHDKFTEC-NH2; linker N-2-9 via X3), the IC50 worked out at 5.43 µM. Still for that read-out and setting: next, `CCCC[C@@H]1NC(=O)[C@@H]2CCCN2C(=O)[C@@H]2CSCc3cc(cc(c3)OCCCCCCO/N=C/C(=O)N[C@@H](CCCNC(=N)N)C(=O)N2)CSC[C@@H](C(N)=O)NC(=O)[C@H](CCC(=O)O)NC(=O)[C@H](CCC(N)=O)NC(=O)[C@H](Cc2c[nH]c3ccccc23)NC(=O)[C@H](CC2CCC2)NC(=O)[C@H](CC(=O)O)NC1=O` [compound 55, TSL6-SRCP{Nle}D {CbA}WQEC] (RCP[Nle]D[Cba]WQEC-NH2; linker N-2-10 via X3): 3.45 µM; `CC[C@H](C)[C@@H]1NC(=O)[C@H](C(C)C)NC(=O)[C@H](CC(=O)O)NC(=O)[C@H](CC(C)C)NC(=O)[C@H](CCSC)NC(=O)[C@@H]2CSCc3cc(cc(c3)OCCCCCCO/N=C/C(=O)N[C@@H](C)C(=O)N2)CSC[C@@H](C(N)=O)NC(=O)[C@H](CO)NC1=O` [compound 85, TSL6- SACMLDVISC] (ACMLDVISC-NH2; linker N-2-9 via X3): 66.6 µM; `CCCC[C@@H]1NC(=O)[C@@H]2CCCN2C(=O)[C@@H]2CSCc3cc(cc(c3)OCCCCCCO/N=C/C(=O)N[C@@H](CCCNC(=N)N)C(=O)N2)CSC[C@@H](C(N)=O)NC(=O)[C@H](CCCCN)NC(=O)[C@H](C(C)C)NC(=O)[C@H](Cc2c[nH]c3ccccc23)NC(=O)[C@H]([C@@H](C)CC)NC(=O)[C@H](CC(=O)O)NC1=O` [compound 27, TSL6- SRCP{Nle} DIWVKC] (RCP[Nle]DIWVKC-NH2; linker N-2-10 via X3): 0.62 µM. With `CSCC[C@@H]1NC(=O)[C@@H]2CCCN2C(=O)[C@@H]2CSCc3cc(cc(c3)OCCCCCCO/N=C/C(=O)N[C@@H](C)C(=O)N2)CSC[C@@H](C(N)=O)NC(=O)[C@H](CCC(=O)O)NC(=O)CNC(=O)[C@H](C)NC(=O)[C@H](C(C)C)NC(=O)[C@H](CC(=O)O)NC1=O` [compound 61, TSL6- SACPMDVAGEC] (ACPMDVAGEC-NH2; linker N-2-10 via X3), the 50% inhibitory concentration (IC50) worked out at 5.98 µM.

As to `CC(C)[C@@H]1NC(=O)[C@H](CC(=O)O)NC(=O)[C@H](CC(C)(C)C)NC(=O)[C@@H]2CCCN2C(=O)[C@@H]2CSCc3cc(cc(c3)OCCCCCCO/N=C/C(=O)N[C@@H](CCCNC(=N)N)C(=O)N2)CSC[C@@H](C(N)=O)NC(=O)[C@H](CCC(=O)O)NC(=O)[C@H](CCC(N)=O)NC(=O)[C@@H]2CCCN2C1=O` [compound 30, TSL6- SRCP{tBuAla} DVPQEC] (RCP[tBuAla]DVPQEC-NH2; linker N-2-10 via X3), the half-inhibitory concentration (IC50) amounted to 0.69 µM. As to `CC(C)C[C@@H]1NC(=O)[C@H]([C@@H](C)O)NC(=O)[C@H](CC(=O)O)NC(=O)[C@H](CO)NC(=O)[C@H](CCCNC(=N)N)N(C)C(=O)c2ccccc2CSC(C)(C)[C@@H](C(=O)N[C@@H](Cc2c[nH]c3ccccc23)C(=O)N[C@H](CCC(=O)O)C(N)=O)NC1=O` [compound 1], the concentration for half-maximal inhibition (IC50) is 0.003 µM.

Staying with this assay, now noted: competition ELISA, 4 μg/mL α4β7 coated, MAdCAM and peptide mixture, 28° C.; read-out: IC50.
For `CC(C)(C)C[C@@H]1NC(=O)[C@H](CC(=O)O)NC(=O)[C@H](CC2CCC2)NC(=O)[C@@H]2CCCN2C(=O)[C@@H]2CSCc3cc(cc(c3)OCCCCCCON=CC(=O)N[C@@H](CCCNC(=N)N)C(=O)N2)CSC[C@@H](C(=O)O)NC(=O)[C@H](CCC(=O)O)NC(=O)[C@H](CCC(N)=O)NC(=O)[C@H](Cc2c[nH]c3ccccc23)NC1=O` [SEQ ID NO: 105] (RCP[Cba]D[tBuAla]WQEC-OH; linker N-2-10 via X1), the IC50 came to 3.89 µM. Turning to `CC(C)C[C@@H]1NC(=O)[C@@H]2CCCN2C(=O)[C@@H]2CSCc3cc(cc(c3)OCCCCCCON=CC(=O)N[C@@H](CCCCN)C(=O)N2)CSC[C@@H](C(=O)O)NC(=O)[C@H](CO)NC(=O)[C@@H]2CCCN2C(=O)[C@H](C)NC(=O)[C@H](CC(=O)O)NC1=O` [SEQ ID NO: 57] (KCPLDAPSC-OH; linker N-2-9 via X1), the 50% inhibitory concentration (IC50) came to 1.74 µM.

Values taken from patent publication US20230145835A1, “Modulators of Alpha-4-beta-7 Integrin and MAdCAM” (48HD Biopharma Inc., priority 2021, published 2023).
